Measurements as given in patent US8476253B2, “Amide derivative” (Daiichi Sankyo Company, Limited, priority 2009, dated 2013).
Counter-ions that a name gives are not always drawn. Like-named read-outs stand apart in the source and are kept apart here.

Columns and labels:
human NK2 receptor = biological target: T1, human NK2 receptor (Homo sapiens, UniProt P21452); test: Test for binding to human NK2 receptor
T1 construct: expressed in transfected cells; host or cells: COS cells
T1 sequence (P21452 1-398): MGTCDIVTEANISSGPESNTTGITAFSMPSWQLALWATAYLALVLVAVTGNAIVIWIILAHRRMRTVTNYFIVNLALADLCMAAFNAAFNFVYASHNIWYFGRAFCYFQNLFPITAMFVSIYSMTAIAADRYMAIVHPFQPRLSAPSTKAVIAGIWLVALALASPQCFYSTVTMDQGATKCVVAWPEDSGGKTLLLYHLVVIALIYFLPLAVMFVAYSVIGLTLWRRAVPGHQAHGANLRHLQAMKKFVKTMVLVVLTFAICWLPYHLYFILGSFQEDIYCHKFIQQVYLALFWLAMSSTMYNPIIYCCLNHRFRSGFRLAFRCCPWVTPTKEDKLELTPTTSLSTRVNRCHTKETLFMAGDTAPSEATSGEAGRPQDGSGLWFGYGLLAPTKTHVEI
Summary of the method: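 Radioligand binding with [^3H]SR 48968 on cryopreserved COS cells expressing human NK2 receptor (5.0×10^5 cells/mL), in 50 mM Tris-HCl pH 7.4 with BSA, MnCl2 and protease inhibitors. Bound label collected on PEI-treated GF/B filters, counted by liquid scintillation; Ki derived from IC50 and radioligand Kd.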

substance P receptor = biological target: T2, substance P receptor (Cavia porcellus, UniProt P30547); test: Test for binding to guinea-pig substance P receptor (crude lung membrane sample); conditions: crude guinea-pig lung membrane sample, [3H]substance P; Ki from IC50 and Kd; read-out: Ki
T2 construct: A preparation of a crude lung membrane sample was prepared; from tissue; host or cells: guinea-pig lung (crude membrane sample)
T2 sequence (P30547 whole entry): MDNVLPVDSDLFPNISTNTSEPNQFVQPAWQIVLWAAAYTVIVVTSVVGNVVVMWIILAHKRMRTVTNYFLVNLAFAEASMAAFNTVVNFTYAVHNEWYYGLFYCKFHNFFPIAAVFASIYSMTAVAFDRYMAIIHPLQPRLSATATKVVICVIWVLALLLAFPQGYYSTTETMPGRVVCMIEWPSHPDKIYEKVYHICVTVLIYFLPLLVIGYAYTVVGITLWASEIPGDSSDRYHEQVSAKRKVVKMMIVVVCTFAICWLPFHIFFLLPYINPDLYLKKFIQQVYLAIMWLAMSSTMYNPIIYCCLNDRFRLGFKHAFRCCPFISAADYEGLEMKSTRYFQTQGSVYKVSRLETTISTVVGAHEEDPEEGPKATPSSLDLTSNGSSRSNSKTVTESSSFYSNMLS
Procedure: A preparation of a crude lung membrane sample was prepared, and a test for binding of a test substance to the sample was performed according to the method described in EP0336230A2.
The binding effect of the test substance to a substance P receptor was calculated as an affinity (Ki) of the test substance for the substance P receptor from a 50% binding concentration (IC50) and an affinity (Kd) of [^3H]substance P for the substance P receptor.

muscarine M3 receptor = test: Effect of suppressing methacholine-induced airway contraction (in vivo, intratracheal administration); design: species or system guinea pig; conditions: guinea pigs, intratracheal administration 60 minutes before 30 μg/kg i.v. methacholine; AUC of increase in airway pressure over 10 minutes
Summary of the method: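 Anesthetized, gallamine-paralysed, ventilated male Hartley guinea pigs (350–550 g); compound in 5% glucose given intratracheally 60 min before 30 μg/kg i.v. methacholine. Airway pressure AUC over 10 min scored; ID50 from inhibition versus 5% glucose vehicle group.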

[1] = COS cells expressing human NK2 receptor, [3H]SR 48968 1 nM, Ki from IC50 and Kd, read-out: Ki

CN(CCN1CCC(OC(=O)Nc2ccccc2-c2ccccc2)CC1)C(=O)CCCCCNc1nc2ccc(C(=O)N(C)CCCN(C)C(=O)CO[C@H]3Cc4ccccc4C34CCN(CC[C@@]3(c5ccc(F)cc5)CN(C(=O)c5cc(C(F)(F)F)cc(C(F)(F)F)c5)CO3)CC4)cc2s1 [Example 93, 1-(2-{[6-({6-[{3-[({[(2S)-1′-{2-[(5R)-3-[3,5-Bis(trifluoromethyl)benzoyl]-5-(4-fluorophenyl)-1,3-oxazolidin-5-yl]ethyl}-2,3-dihydrospiro[indene-1,4′-piperidin]-2-yl]oxy}acetyl)(methy)amino]propyl}(methyl)carbamoyl]-1,3-benzothiazol-2-yl}amino)hexanoyl](methyl)amino}ethyl)piperidin-4-yl biphenyl-2-ylcarbamate]
Ki (human NK2 receptor; [1]): 0.55 nM
Ki (substance P receptor): 1 nM
ID50 (muscarine M3 receptor): 0.0372 mg/kg

CN(CCN1CCC(OC(=O)Nc2ccccc2-c2ccccc2)CC1)C(=O)CCCCCNCc1ccc(C(=O)N(C)CCCN(C)C(=O)CO[C@H]2Cc3ccccc3C23CCN(CC[C@@]2(c4ccc(F)cc4)CN(C(=O)c4cc(C(F)(F)F)cc(C(F)(F)F)c4)CO2)CC3)s1 [Example 1, 1-{2-[{6-[({5-[{3-[({[(2S)-1′-{2-[(5R)-3-[3,5-Bis(trifluoromethyl)benzoyl]-5-(4-fluorophenyl)-1,3-oxazolidin-5-yl]ethyl}-2,3-dihydrospiro[indene-1,4′-piperidin]-2-yl]oxy}acetyl)(methyl)amino]propyl}(methyl)carbamoyl]-2-thienyl}methyl)amino]hexanoyl}(methyl)amino]ethyl}piperidin-4-yl biphenyl-2-ylcarbamate]
Ki (human NK2 receptor; [1]): 0.57 nM
Ki (substance P receptor): 1.5 nM
ID50 (muscarine M3 receptor): 0.0177 mg/kg

CN(CCN1CCC(OC(=O)Nc2ccccc2-c2ccccc2)CC1)C(=O)CCCCCNc1ccc(C(=O)N(C)CCCN(C)C(=O)CO[C@H]2Cc3ccccc3C23CCN(CC[C@@]2(c4ccc(F)cc4)CN(C(=O)c4cc(C(F)(F)F)cc(C(F)(F)F)c4)CO2)CC3)cc1 [Example 72, 1-(2-{[6-({4-[{3-[({[(2S)-1′-{2-[(5R)-3-[3,5-Bis(trifluoromethyl)benzoyl]-5-(4-fluorophenyl)-1,3-oxazolidin-5-yl]ethyl}-2,3-dihydrospiro[indene-1,4′-piperidin]-2-yl]oxy}acetyl)(methyl)amino]propyl}(methyl)carbamoyl]phenyl}amino)hexanoyl](methyl)amino}ethyl)piperidin-4-yl biphenyl-2-ylcarbamate]
Ki (human NK2 receptor; [1]): 0.52 nM
Ki (substance P receptor): 1.4 nM
ID50 (muscarine M3 receptor): 0.0635 mg/kg

CN(CCN1CCC(OC(=O)Nc2ccccc2-c2ccccc2)CC1)C(=O)CCCCNc1ccc(C(=O)N(C)CCCN(C)C(=O)CO[C@H]2Cc3ccccc3C23CCN(CC[C@@]2(c4ccc(F)cc4)CN(C(=O)c4cc(C(F)(F)F)cc(C(F)(F)F)c4)CO2)CC3)cc1 [Example 32, 1-(2-{[5-({4-[{3-[({[(2S)-1′-{2-[(5R)-3-[3,5-Bis(trifluoromethyl)benzoyl]-5-(4-fluorophenyl)-1,3-oxazolidin-5-yl]ethyl}-2,3-dihydrospiro[indene-1,4′-piperidin]-2-yl]oxy}acetyl)(methyl)amino]propyl}(methyl)carbamoyl]phenyl}amino)pentanoyl](methyl)amino}ethyl)piperidin-4-yl biphenyl-2-ylcarbamate trihydrochloride]
Ki (human NK2 receptor): 0.74 nM
Ki (substance P receptor): 1.3 nM
ID50 (muscarine M3 receptor): 0.0356 mg/kg

CN(CCN1CCC(OC(=O)Nc2ccccc2-c2ccccc2)CC1)C(=O)CCCCCNc1ccc(C(=O)N2CCCN(C(=O)CO[C@H]3Cc4ccccc4C34CCN(CC[C@@]3(c5ccc(F)cc5)CN(C(=O)c5cc(C(F)(F)F)cc(C(F)(F)F)c5)CO3)CC4)CC2)cc1 [Example 110, 1-{2-[{6-[(4-{[4-({[(2S)-1′-{2-[(5R)-3-[3,5-Bis(trifluoromethyl)benzoyl]-5-(4-fluorophenyl)-1,3-oxazolidin-5-yl)ethyl}-2,3-dihydrospiro[indene-1,4′-piperidin]-2-yl]oxy}acetyl)-1,4-diazepan-1-yl]carbonyl}phenyl)amino]hexanoyl}(methyl)amino]ethyl}piperidin-4-yl biphenyl-2-ylcarbamate trihydrochloride]
Ki (human NK2 receptor): 0.6 nM
Ki (substance P receptor): 1.7 nM
ID50 (muscarine M3 receptor): 0.0318 mg/kg

CN(CCN1CCC(OC(=O)Nc2ccccc2-c2ccccc2)CC1)C(=O)CCCCCCN(C)c1ccc(C(=O)N(C)CCCN(C)C(=O)CO[C@H]2Cc3ccccc3C23CCN(CC[C@@]2(c4ccc(F)cc4)CN(C(=O)c4cc(C(F)(F)F)cc(C(F)(F)F)c4)CO2)CC3)cc1 [Example 40, 1-{2-[{7-[{4-[{3-[({[(2S)-1′-{2-[(5R)-3-[3,5-Bis(trifluoromethyl)benzoyl]-5-(4-fluorophenyl)-1,3-oxazolidin-5-yl]ethyl}-2,3-dihydrospiro[indene-1,4′-piperidin]-2-yl]oxy}acetyl)(methyl)amino]propyl}(methyl)carbamoyl]phenyl}(methyl)amino]heptanoyl}(methyl)amino]ethyl}piperidin-4-yl biphenyl-2-ylcarbamate trihydrochloride]
Ki (human NK2 receptor): 0.83 nM
Ki (substance P receptor): 1.6 nM
ID50 (muscarine M3 receptor): 0.0754 mg/kg

CN(CCN1CCC(OC(=O)Nc2ccccc2-c2ccccc2)CC1)C(=O)CCCCCNc1cccc(C(=O)N(C)CCCN(C)C(=O)CO[C@H]2Cc3ccccc3C23CCN(CC[C@@]2(c4ccc(F)cc4)CN(C(=O)c4cc(C(F)(F)F)cc(C(F)(F)F)c4)CO2)CC3)c1 [Example 43, 1-(2-{[6-({3-[{3-[({[(2S)-1′-{2-[(5R)-3-[3,5-Bis(trifluoromethyl)benzoyl]-5-(4-fluorophenyl)-1,3-oxazolidin-5-yl]ethyl}-2,3-dihydrospiro[indene-1,4′-piperidin]-2-yl]oxy}acetyl)(methyl)amino]propyl}(methyl)carbamoyl]phenyl}amino)hexanoyl](methyl)amino}ethyl)piperidin-4-yl biphenyl-2-ylcarbamate trihydrochloride]
Ki (human NK2 receptor): 1.3 nM
Ki (substance P receptor): 1.6 nM
ID50 (muscarine M3 receptor): 0.0757 mg/kg

CN(CCN1CCC(OC(=O)Nc2ccccc2-c2ccccc2)CC1)C(=O)CCCCCNc1ccc(C(=O)N(CCCN(C)C(=O)CO[C@H]2Cc3ccccc3C23CCN(CC[C@@]2(c4ccc(F)cc4)CN(C(=O)c4cc(C(F)(F)F)cc(C(F)(F)F)c4)CO2)CC3)C2CC2)cc1 [Example 25, 1-(2-{[6-({4-[{3-[({[(2S)-1′-{2-[(5R)-3-[3,5-Bis(trifluoromethyl)benzoyl]-5-(4-fluorophenyl)-1,3-oxazolidin-5-yl]ethyl}-2,3-dihydrospiro[indene-1,4′-piperidin]-2-yl]oxy}acetyl)(methyl)amino]propyl}(cyclopropyl)carbamoyl]phenyl}amino)hexanoyl](methyl)amino}ethyl)piperidin-4-yl biphenyl-2-ylcarbamate trihydrochloride]
Ki (human NK2 receptor): 0.77 nM
Ki (substance P receptor): 1.7 nM
ID50 (muscarine M3 receptor): 0.0459 mg/kg

CN(CCN1CCC(OC(=O)Nc2ccccc2-c2ccccc2)CC1)C(=O)CCCCCNc1ccc(N(C)C(=O)CCCN(C)C(=O)CO[C@H]2Cc3ccccc3C23CCN(CC[C@@]2(c4ccc(F)cc4)CN(C(=O)c4cc(C(F)(F)F)cc(C(F)(F)F)c4)CO2)CC3)cc1 [Example 84, 1-(2-{[6-({4-[{-4-[({[(2S)-1′-{2-[(5R)-3-[3,5-Bis(trifluoromethyl)benzoyl]-5-(4-fluorophenyl)-1,3-oxazolidin-5-yl]ethyl}-2,3-dihydrospiro[indene-1,4′-piperidin]-2-yl]oxy}acetyl)(methyl)amino]butanoyl}(methyl)amino]phenyl}amino)hexanoyl](methyl)amino}ethyl)piperidin-4-yl biphenyl-2-ylcarbamate trihydrochloride]
Ki (human NK2 receptor): 0.89 nM
Ki (substance P receptor): 2.7 nM
ID50 (muscarine M3 receptor): 0.0143 mg/kg

CN(CCN1CCC(OC(=O)Nc2ccccc2-c2ccccc2)CC1)C(=O)COCCCNc1ccc(C(=O)N(C)CCCN(C)C(=O)CO[C@H]2Cc3ccccc3C23CCN(CC[C@@]2(c4ccc(F)cc4)CN(C(=O)c4cc(C(F)(F)F)cc(C(F)(F)F)c4)CO2)CC3)cc1 [Example 27, 1-{2-[{[3-({4-[{3-[({[(2S)-1′-{2-[(5R)-3-[3,5-Bis(trifluoromethyl)benzoyl]-5-(4-fluorophenyl)-1,3-oxazolidin-5-yl]ethyl}-2,3-dihydrospiro[indene-1,4′-piperidin]-2-yl]oxy}acetyl)(methyl)amino]propyl}(methyl)carbamoyl]phenyl}amino)propoxy]acetyl}(methyl)amino]ethyl}piperidin-4-yl biphenyl-2-ylcarbamate trihydrochloride]
Ki (human NK2 receptor): 0.76 nM
Ki (substance P receptor): 1.2 nM
ID50 (muscarine M3 receptor): 0.0218 mg/kg
